{"source": "patent US20100129831A1", "about": "“METHODS FOR DIAGNOSING HYPERSENSITIVITY REACTIONS” (priority 2007, published 2010)", "system": "acute interstitial nephritis", "assay": "oral glucocorticoid treatment of acute interstitial nephritis (case report)", "type": "in vivo, human", "conditions": "1 mg/kg, creatinine gradually declined", "experimental": "Severe acute interstitial nephritis (AIN) was diagnosed based on needle biopsy. Oral glucocorticoid treatment (prednisone 1 mg/kg) was begun and was effective. Creatinine gradually declined over the next 8 weeks (Cr-3.5 mg/dL); glucose levels also declined. Another course of steroids was initiated, after which the creatinine level further declined, stabilizing around a level of 1.8 mg/dL, close to the previous value of 1.4 mg/dL. While investigated as to the etiology of their newly diagnosed AIN, the patient described the use of an alternative medicine hypnotic or sedative OTC, “Region-Laila.” Region's leaflet lists 4 active ingredients: Passiflora incarnata 250 mg, Scutellaria laterifolia 50 mg, Humulus Lupullus 50 mg and Melissa officinalis 25 mg.", "data": [{"compound": "C[C@]12C=CC(=O)C=C1CC[C@@H]1[C@@H]2C(=O)C[C@@]2(C)[C@H]1CC[C@]2(O)C(=O)CO", "note": "[prednisone]", "values": [{"measurement": "treatment outcome in acute interstitial nephritis", "value": "effective"}]}]}
